EC50 data for 32 molecules are collected here from patent US10913727B2, “Modulators of the integrated stress pathway” (Calico Life Sciences LLC, priority 2016, dated 2021).

Structures are written as SMILES. A value given as a limit tells only on which side of the number the result lay.

A word on the EC50: it is the concentration needed to bring the measured effect to its halfway point.

The test system of the assay is HEK293T cells carrying the ATF4 luciferase reporter. As to the kind of experiment: ATF4-Luc assay, in vitro model of Vanishing Cell White Matter Disease (VWMD). In kind it is cell-based. The settings on record: Homo sapiens, HEK-293T, 1 μg/mL tunicamycin, 7 hours, One Glo luminescence. A digest of the protocol: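 Reporter cells were stably generated by retroviral transduction and puromycin selection, then seeded at 30,000 cells/well. Next day, cells received 1 μg/mL tunicamycin with 200 nM test compound for 7 h, and luciferase luminescence was read with a one-step reagent. Values reported as EC50.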
For `O=C(COc1ccc(Cl)c(F)c1)NC12CC(NC(=O)c3cnc4ccnn4c3)(C1)C2` [Compound 690, N-{3-[2-(4-chloro-3-fluorophenoxy)acetamido]bicyclo[1.1.1]pentan-1-yl}pyrazolo[1,5-a]pyrimidine-6-carboxamide], the EC50 fell in the range of 250 to 1000 nM.
With `Cc1cccn2cc(C(=O)NC34CCC(NC(=O)COc5ccc(Cl)c(F)c5)(CC3)C(O)C4)nc12` (centres unmarked) [Compound 599, N-{4-[2-(4-chloro-3-fluorophenoxy)acetamido]-3-hydroxybicyclo[2.2.2]octan-1-yl}-8-methylimidazo[1,2-a]pyridine-2-carboxamide] the figure was 250 to 1000 nM.
With `Cc1ccc(C(=O)NC23CC(NC(=O)COc4ccc(Cl)c(F)c4)(C2)C3)cn1` [Compound 140, N-{3-[2-(4-chloro-3-fluorophenoxy)acetamido]bicyclo[1.1.1]pentan-1-yl}-6-methylpyridine-3-carboxamide] the figure was 250 to 1000 nM; with `O=C(COc1ccc(Cl)c(F)c1)NC12CC(NC(=O)c3ccc4nccnc4c3)(C1)C2` [Compound 766, N-{3-[2-(4-chloro-3-fluorophenoxy)acetamido]bicyclo[1.1.1]pentan-1-yl}quinoxaline-6-carboxamide], greater than 2000 nM.
`CCSc1cncc(C(=O)NC23CC(NC(=O)COc4ccc(Cl)c(F)c4)(C2)C3)n1` [Compound 898, N-{3-[2-(4-chloro-3-fluorophenoxy)acetamido]bicyclo[1.1.1]pentan-1-yl}-6-(ethylsulfanyl)pyrazine-2-carboxamide]: the EC50 lay in the range of 50 to 250 nM.
`O=C(COc1ccc2c(c1)OC(F)(F)O2)NC12CC(NC(=O)c3cnc(C(F)F)cn3)(C1)C2` [Compound 376, N-(3-{2-[(2,2-difluoro-2H-1,3-benzodioxol-5-yl)oxy]acetamido}bicyclo[1.1.1]pentan-1-yl)-5-(difluoromethyl)pyrazine-2-carboxamide]: the EC50 was in the range of 50 to 250 nM.
With `Cc1cnc2c(C(=O)NC34CC(NC(=O)COc5ccc(Cl)c(F)c5)(C3)C4)cnn2c1` [Compound 806, N-{3-[2-(4-chloro-3-fluorophenoxy)acetamido]bicyclo[1.1.1]pentan-1-yl}-6-methylpyrazolo[1,5-a]pyrimidine-3-carboxamide] the figure was greater than 2000 nM; with `O=C(COc1ccc(Cl)c(F)c1)NC12CC(NC(=O)c3cnc4[nH]ccc4c3)(C1)C2` [Compound 746, N-{3-[2-(4-chloro-3-fluorophenoxy)acetamido]bicyclo[1.1.1]pentan-1-yl}-1H-pyrrolo[2,3-b]pyridine-5-carboxamide], 50 to 250 nM; with `Cc1cc(C(=O)NC23CC(NC(=O)COc4ccc(Cl)c(F)c4)(C2)C3)nn1-c1ccc(Cl)cc1` [Compound 112, N-{3-[2-(4-chloro-3-fluorophenoxy)acetamido]bicyclo[1.1.1]pentan-1-yl}-1-(4-chlorophenyl)-5-methyl-1H-pyrazole-3-carboxamide], 250 to 1000 nM.
With `O=C(COc1ccc(Cl)c(F)c1)NC12CC(NC(=O)c3c[nH]c4ccccc34)(C1)C2` [Compound 313, N-{3-[2-(4-chloro-3-fluorophenoxy)acetamido]bicyclo[1.1.1]pentan-1-yl}-1H-indole-3-carboxamide] the figure was 50 to 250 nM; with `Cc1c(C(=O)NC23CC(NC(=O)COc4ccc(Cl)c(F)c4)(C2)C3)cnn1C` [Compound 882, N-{3-[2-(4-chloro-3-fluorophenoxy)acetamido]bicyclo[1.1.1]pentan-1-yl}-1,5-dimethyl-1H-pyrazole-4-carboxamide], greater than 2000 nM; with `O=C(COc1ccc(Cl)c(Cl)c1)NC12CC(NC(=O)c3cnccn3)(C1)C2` [Compound 164, N-{3-[2-(3,4-dichlorophenoxy)acetamido]bicyclo[1.1.1]pentan-1-yl}pyrazine-2-carboxamide], 50 to 250 nM.
For `N#Cc1cncc(NC23CC(NC(=O)COc4ccc(Cl)c(F)c4)(C2)C3)n1` [Compound 745, 2-(4-chloro-3-fluorophenoxy)-N-{3-[(6-cyanopyrazin-2-yl)amino]bicyclo[1.1.1]pentan-1-yl}acetamide], the EC50 was greater than 2000 nM.
With `CC(C)c1oncc1C(=O)NC12CC(NC(=O)COc3ccc(Cl)c(F)c3)(C1)C2` [Compound 855, N-{3-[2-(4-chloro-3-fluorophenoxy)acetamido]bicyclo[1.1.1]pentan-1-yl}-5-(propan-2-yl)-1,2-oxazole-4-carboxamide] the figure was greater than 2000 nM; with `O=C(COc1ccc(Cl)c(F)c1)NC12CCC(NC(=O)c3cc(O)no3)(CC1)CC2O` (centres unmarked) [Compound 411, N-{4-[2-(4-chloro-3-fluorophenoxy)acetamido]-3-hydroxybicyclo[2.2.2]octan-1-yl}-3-hydroxy-1,2-oxazole-5-carboxamide], greater than 2000 nM.
With `COc1ccc2oc(C(=O)NC34CC(NC(=O)COc5ccc(Cl)c(F)c5)(C3)C4)cc2c1` [Compound 319, N-{3-[2-(4-chloro-3-fluorophenoxy)acetamido]bicyclo[1.1.1]pentan-1-yl}-5-methoxy-1-benzofuran-2-carboxamide] the figure was 50 to 250 nM; with `Cn1nc(C(=O)NC23CC(NC(=O)COc4ccc(Cl)c(F)c4)(C2)C3)c2ccccc21` [Compound 823, N-{3-[2-(4-chloro-3-fluorophenoxy)acetamido]bicyclo[1.1.1]pentan-1-yl}-1-methyl-1H-indazole-3-carboxamide], greater than 2000 nM; with `O=C(COCc1cccc(Cl)c1)NC12CC(NC(=O)c3cnc(C(F)F)cn3)(C1)C2` [Compound 947, N-(3-{2-[(3-chlorophenyl)methoxy]acetamido}bicyclo[1.1.1]pentan-1-yl)-5-(difluoromethyl)pyrazine-2-carboxamide], greater than 2000 nM.
With `CC(C)(O)c1ccc(C(=O)NC23CC(NC(=O)COc4ccc(Cl)c(F)c4)(C2)C3)cc1` [Compound 208, N-{3-[2-(4-chloro-3-fluorophenoxy)acetamido]bicyclo[1.1.1]pentan-1-yl}-4-(2-hydroxypropan-2-yl)benzamide] the figure was 1000 to 2000 nM; with `O=C(COc1ccc(Cl)c(F)c1)NC12CC(NC(=O)c3cncs3)(C1)C2` [Compound 309, N-{3-[2-(4-chloro-3-fluorophenoxy)acetamido]bicyclo[1.1.1]pentan-1-yl}-1,3-thiazole-5-carboxamide], 250 to 1000 nM; with `Cn1cc2c(NC34CC(NC(=O)COc5ccc(Cl)c(F)c5)(C3)C4)nccc2n1` [Compound 492, 2-(4-chloro-3-fluorophenoxy)-N-{3-[(2-methyl-2H-pyrazolo[4,3-c]pyridin-4-yl)amino]bicyclo[1.1.1]pentan-1-yl}acetamide], 50 to 250 nM.
Turning to `Cc1ccc(C(=O)NC23CCC(NC(=O)COc4ccc(Cl)c(F)c4)(CC2)C(O)C3)s1` (centres unmarked) [Compound 621, N-{4-[2-(4-chloro-3-fluorophenoxy)acetamido]-3-hydroxybicyclo[2.2.2]octan-1-yl}-5-methylthiophene-2-carboxamide], the 50% effective concentration (EC50) was in the range of 50 to 250 nM.
In the case of `O=C(COc1ccc(Cl)c(F)c1)NC12CC(NC(=O)c3cnc(C4CCOCC4)o3)(C1)C2` [Compound 139, N-{3-[2-(4-chloro-3-fluorophenoxy)acetamido]bicyclo[1.1.1]pentan-1-yl}-2-(oxan-4-yl)-1,3-oxazole-5-carboxamide], the EC50 lay within 250 to 1000 nM.
Turning to `CC(=O)Nc1ccc(C(=O)NC23CC(NC(=O)COc4ccc(Cl)c(F)c4)(C2)C3)cc1` [Compound 816, 4-acetamido-N-{3-[2-(4-chloro-3-fluorophenoxy)acetamido]bicyclo[1.1.1]pentan-1-yl}benzamide], the half-maximal effective concentration (EC50) was greater than 2000 nM.
With `O=C(COc1ccc(Cl)c(Cl)c1)NC12CCC(NC(=O)c3cc(C(F)F)no3)(CC1)C[C@@H]2O` [Compound 758, N-{(3S)-4-[2-(3,4-dichlorophenoxy)acetamido]-3-hydroxybicyclo[2.2.2]octan-1-yl}-3-(difluoromethyl)-1,2-oxazole-5-carboxamide] the figure was less than 50 nM.
Take `O=C(COc1ccc(Cl)c(F)c1)NC12CCC(NC(=O)c3ccc4cc(F)ccc4n3)(CC1)[C@@H](O)C2` [Compound 930, N-{(2S)-4-[2-(4-chloro-3-fluorophenoxy)acetamido]-2-hydroxybicyclo[2.2.2]octan-1-yl}-6-fluoroquinoline-2-carboxamide]: the 50% effective concentration (EC50) was less than 50 nM.
As to `Cc1nn(C)c(C(=O)NC23CCC(NC(=O)COc4ccc(Cl)c(F)c4)(CC2)C(O)C3)c1F` (centres unmarked) [Compound 517, N-{4-[2-(4-chloro-3-fluorophenoxy)acetamido]-3-hydroxybicyclo[2.2.2]octan-1-yl}-4-fluoro-1,3-dimethyl-1H-pyrazole-5-carboxamide], the 50% effective concentration (EC50) lay in the range of 50 to 250 nM.
With `COc1cccc(C(=O)NC23CCC(NC(=O)COc4ccc(Cl)c(F)c4)(CC2)C(O)C3)n1` (centres unmarked) [Compound 923, N-{4-[2-(4-chloro-3-fluorophenoxy)acetamido]-3-hydroxybicyclo[2.2.2]octan-1-yl}-6-methoxypyridine-2-carboxamide] the figure was 50 to 250 nM.
In the case of `O=C(COc1ccc(Cl)c(F)c1)NC12CC(Nc3cncc(N4CCOCC4)n3)(C1)C2` [Compound 744, 2-(4-chloro-3-fluorophenoxy)-N-(3-{[6-(morpholin-4-yl)pyrazin-2-yl]amino}bicyclo[1.1.1]pentan-1-yl)acetamide], the EC50 lay in the range of 250 to 1000 nM.
The value for `O=C(COc1ccc(Cl)c(F)c1)NC12CCC(NC(=O)c3ccc(OC(F)(F)F)nc3)(CC1)CC2O` (centres unmarked) [Compound 451, N-{4-[2-(4-chloro-3-fluorophenoxy)acetamido]-3-hydroxybicyclo[2.2.2]octan-1-yl}-6-(trifluoromethoxy)pyridine-3-carboxamide] was less than 50 nM.
With `Cc1noc(C(=O)NC23CC(NC(=O)COc4ccc(Cl)c(F)c4)(C2)C3)n1` [Compound 375, N-{3-[2-(4-chloro-3-fluorophenoxy)acetamido]bicyclo[1.1.1]pentan-1-yl}-3-methyl-1,2,4-oxadiazole-5-carboxamide] the figure was 50 to 250 nM; with `Cc1ncoc1C(=O)NC12CC(NC(=O)COc3ccc(Cl)c(F)c3)(C1)C2` [Compound 869, N-{3-[2-(4-chloro-3-fluorophenoxy)acetamido]bicyclo[1.1.1]pentan-1-yl}-4-methyl-1,3-oxazole-5-carboxamide], greater than 2000 nM.
